Values after ≈ are worked out from the molar mass of the structure shown. Like-named read-outs stand apart in the source and are kept apart here. Values belong to the molecule of their own block, whether it stands above or below them.
Assays:
[1] = test system: B16 melanoma cells of mouse; experiment: Effect of indigo-plant extract and other skin-whitening ingredient on melanin production (Experiment 2); type: cell-based; parameters: Efficacy with 1.25% of indigo-plant extract: key: −: Not changed; ±: Slightly suppressing blackening; +: Moderately suppressing blackening; ++: Significantly suppressing blackening; +++: Completely suppressing blackening; details: for Efficacy with 1.25% of indigo-plant extract: 72 hours; for Efficacy without indigo-plant extract: cultured 72 hours; as to Efficacy without indigo-plant extract: key: −: Not changed; ±: Slightly suppressing blackening; +: Moderately suppressing blackening; ++: Significantly suppressing blackening; +++: Completely suppressing blackening
Protocol: The criterion for evaluation of blackening:
The following experiment was carried out to investigate the skin-whitening effect of indigo-plant extract and other skin-whitening ingredient. After B16 melanoma cells of mouse were cultured for 24 hours, the test samples were added to the medium alone or along with 1.25% of the indigo-plant extract to give the concentrations described in Table 2, the cells were cultured for additional 72 hours. After the number of the living cells was counted, a color of the cells packed in capillary was observed. The effect was evaluated on the same criterion in Experiment 1. When the experiment was conducted using 1.25% of the indigo-plant extract, the effect was evaluated as “+”.

[2] = test system: S. mutans; experiment: MIC to dental bacteria, agar plate dilution; type: cell-based; details: Streptococcus mutans
Protocol: (§1) The following experiment was carried out to investigate the effect of indigo-plant extract on human dental bacteria. Two parts by weight of shredded whole indigo plant was added with three parts by weight of purified water and stirred at a room temperature for 10 minutes to prepare the extract. The supernatant obtained by centrifugation was autoclaved at 120° C. for 20 minutes. After autoclaved, the supernatant obtained by centrifugation was filtrated to give an indigo-plant extract (solid content of 1.41%). The minimum inhibitory concentration (hereinafter, occasionally abbreviated as “MIC”) of the extract to dental bacteria (periodontal disease bacteria and caries bacteria) was determined. Also MIC of tryptanthrin, gallic acid and caffeic acid, which are found to be contained in the indigo-plant extract to dental bacteria. The measurement of MIC was conducted by the method described below.
(§2) MIC of the indigo-plant extract, tirptanthrin, gallic acid and caffeic acid was determined according to the standard method of Japanese Society of Chemotherapy (q.v. “Saikin-Shinkin Kensa” (Second edition), issued by Japan Public Health Association, pp. 524-529 (1982)). For periodontal disease bacteria, Prophyromonas gingivalis JCM8525, JCM12257 and ATCC33277, Actinobacillus actinomycetemcomitans (hereinafter, occasionally abbreviated as “A. actinomycetemcomitans”) JCM2434 and JCM8577, Prevotella intermedia (hereinafter, occasionally abbreviated as “P. intermedia”) JCM7365, and Campylobacter rectus (hereinafter, occasionally abbreviated as “C. rectus”) JCM6301 were used. For caries bacteria, Streptococcus mutans OMZ-175, OMZ-176, OMZ-65, OMZ-61, B-13D and Ingbritt, and Streptococcus sorbrinus (hereinafter, occasionally abbreviated as “S. sorbrinus”) 6715 were used. These bacteria were anaerobically cultured in Brain Heart Infusion medium (commercialized by Difco Laboratories Inc., hereinafter abbreviated as “BHI”) at 37° C. for 48 hours for periodontal disease bacteria or for 18 to 24 hours for caries bacteria. The broth of periodontal disease bacteria and caries bacteria was diluted to give the bacteria suspensions containing 10^8 cells/ml and 10^6 cells/ml, respectively. Five μl of any one of these suspension was inoculated on BHI agar plate containing various concentration of the indigo-plant extract, tryptanthrin, gallic acid or caffeic acid and anaerobically cultured at 37° C. for 24 hours.

[3] = test system: C. rectus; experiment: MIC to dental bacteria, agar plate dilution; type: cell-based; details: Campylobacter rectus, read-out: Minimum Inhibitory Concentration (MIC)
Protocol: as §1, §2

[4] = test system: P. intermedia; experiment: MIC to dental bacteria, agar plate dilution; type: cell-based; details: Prevotella intermedia, read-out: Minimum Inhibitory Concentration (MIC)
Protocol: as §1, §2

[5] = test system: dental bacteria (periodontal disease bacteria and caries bacteria); experiment: MIC to dental bacteria, summary over all strains; type: cell-based
Protocol: as §1
MIC of the indigo-plant extract, tirptanthrin, gallic acid and caffeic acid was determined according to the standard method of Japanese Society of Chemotherapy (q.v. “Saikin-Shinkin Kensa” (Second edition), issued by Japan Public Health Association, pp. 524-529 (1982)). […]

[6] = test system: A. actinomycetemcomitans; experiment: MIC to dental bacteria, agar plate dilution; type: cell-based, Actinobacillus actinomycetemcomitans; details: Aggregatibacter actinomycetemcomitans
Protocol: as §1, §2

[7] = test system: A. actinomycetemcomitans; experiment: MIC to dental bacteria, agar plate dilution; type: cell-based, Actinobacillus actinomycetemcomitans; details: Aggregatibacter actinomycetemcomitans; remark: listed apart in the source
[8] = test system: S. sobrinus; experiment: MIC to dental bacteria, agar plate dilution; type: cell-based, Streptococcus sorbrinus; details: Streptococcus sobrinus, read-out: Minimum Inhibitory Concentration (MIC)
Protocol: as §1
MIC of the indigo-plant extract, tirptanthrin, gallic acid and caffeic acid was determined according to the standard method of Japanese Society of Chemotherapy (q.v. “Saikin-Shinkin Kensa” (Second edition), issued by Japan Public Health Association, pp. 524-529 (1982)). For periodontal disease bacteria, Prophyromonas gingivalis JCM8525, JCM12257 and ATCC33277, Actinobacillus actinomycetemcomitans (hereinafter, occasionally abbreviated as “A. actinomycetemcomitans”) JCM2434 and JCM8577, Prevotella intermedia (hereinafter, occasionally abbreviated as “P. intermedia”) JCM7365, and Campylobacter rectus (hereinafter, occasionally abbreviated as “C. rectus”) JCM6301 were used. For caries bacteria, Streptococcus mutans OMZ-175, OMZ-176, OMZ-65, OMZ-61, B-13D and Ingbritt, and Streptococcus sorbrinus (hereinafter, occasionally abbreviated as “S. sorbrinus”) 6715 were used. These bacteria were anaerobically cultured in Brain Heart Infusion medium (commercialized by Difco Laboratories Inc., hereinafter abbreviated as “BHI”) at 37° C. for 48 hours for periodontal disease bacteria or for 18 to 24 hours for caries bacteria. […]

[9] = test system: B16 melanoma cells of mouse; experiment: Effect of polygonaceous plant extracts on melanin production, blackening of cells (Experiment 1); type: cell-based; as to Efficacy (suppression of blackening of cells): key: −: Not changed; ±: Slightly suppressing blackening; +: Moderately suppressing blackening; ++: Significantly suppressing blackening; +++: Completely suppressing blackening
Protocol: The following experiment was carried out to investigate the effect of extract of polygonaceous plants on melanin production. After 2.2×10^5 of B16 melanoma cells of mouse were cultured by conventional method for 24 hours, the medium was added with indigo-plant extract to give a concentration of 1.25% or 2.5%, then they were cultured for additional 72 hours. After the number of the living cells was counted, color of the cells packed in capillary was observed. Using a medium added with any one of the extract of Japanese knotweed, buckwheat and knotgrass prepared by the same method of Example 1 described later to give a concentration of 2.5%, or added with koji acid to give a concentration of 2.5 mM as control, the B16 melanoma cells were cultured by the same manner as using indigo-plant extract. Then the colors of the cells were observed by the same manner as using indigo-plant extract. The degree of blackening of B16 melanoma cells was evaluated by the criterion described below.

[10] = test system: B16 melanoma cells; experiment: Cytotoxicity to B16 melanoma cells; type: cell-based, mouse; details: 0.5 μg/ml
[11] = content 3.0% together with 1.25% indigo-plant extract
[12] = strain B-13D, read-out: Minimum Inhibitory Concentration (MIC)
[13] = strain Ingbritt, read-out: Minimum Inhibitory Concentration (MIC)
[14] = strain OMZ-61, read-out: Minimum Inhibitory Concentration (MIC)
[15] = strain OMZ-65, read-out: Minimum Inhibitory Concentration (MIC)
[16] = strain OMZ-175, read-out: Minimum Inhibitory Concentration (MIC)
[17] = strain OMZ-176, read-out: Minimum Inhibitory Concentration (MIC)
[18] = strain JMC2434, read-out: Minimum Inhibitory Concentration (MIC)
[19] = strain JMC8577, read-out: Minimum Inhibitory Concentration (MIC)
[20] = strain JMC8525, read-out: Minimum Inhibitory Concentration (MIC)
[21] = strain JMC12257, read-out: Minimum Inhibitory Concentration (MIC)
[22] = strain JMC33277, read-out: Minimum Inhibitory Concentration (MIC)
[23] = content 0.5% together with 1.25% indigo-plant extract
[24] = content 1.0% together with 1.25% indigo-plant extract

Structure (SMILES): CCCCc1ccc(O)cc1O [4-n-Butylresorcinol]
Efficacy with 1.25% of indigo-plant extract [1, 11]: +++ | Efficacy without indigo-plant extract ([1]; content 3.0%): +

Structure (SMILES): OC[C@H]1O[C@@H](Oc2ccc(O)cc2)[C@H](O)[C@@H](O)[C@@H]1O [Arbutin, hydroquinone-β-D-glucoside]
Efficacy with 1.25% of indigo-plant extract ([1]; content 5.0% together with 1.25% indigo-plant extract): +++ | Efficacy without indigo-plant extract ([1]; content 5.0%): +

MIC [2, 12]: 200 µg/mL (≈ 1110 µM) | MIC [2, 13]: 1600 µg/mL (≈ 8880 µM) | MIC [2, 14]: 400 µg/mL (≈ 2220 µM) | MIC [2, 15]: 200 µg/mL (≈ 1110 µM) | MIC [2, 16]: 400 µg/mL (≈ 2220 µM) | MIC [2, 17]: 800 µg/mL (≈ 4440 µM) | MIC ([3]; strain JMC6301): 100 µg/mL (≈ 555 µM) | MIC ([4]; strain JMC7365): 400 µg/mL (≈ 2220 µM) | MIC [6, 18]: 400 µg/mL (≈ 2220 µM) | MIC [6, 19]: 200 µg/mL (≈ 1110 µM) | MIC [7, 20]: 400 µg/mL (≈ 2220 µM) | MIC [7, 21]: 400 µg/mL (≈ 2220 µM) | MIC [7, 22]: 400 µg/mL (≈ 2220 µM) | MIC ([8]; strain 6715): 800 µg/mL (≈ 4440 µM)
Structure (SMILES): O=C(O)/C=C/c1ccc(O)c(O)c1 [Caffeic acid, caffeic acid]
Antimicrobial activity (in words) [5]: no antimicrobial activity

Structure (SMILES): O=c1oc2c(O)c(O)cc3c(=O)oc4c(O)c(O)cc1c4c23 [Ellagic acid]
Efficacy with 1.25% of indigo-plant extract [1, 23]: ++ | Efficacy without indigo-plant extract ([1]; content 0.5%): ±

MIC [2, 12]: 200 µg/mL (≈ 1180 µM) | MIC [2, 13]: 1600 µg/mL (≈ 9410 µM) | MIC [2, 14]: 200 µg/mL (≈ 1180 µM) | MIC [2, 15]: 1600 µg/mL (≈ 9410 µM) | MIC [2, 16]: 400 µg/mL (≈ 2350 µM) | MIC [2, 17]: 400 µg/mL (≈ 2350 µM) | MIC ([3]; strain JMC6301): 400 µg/mL (≈ 2350 µM) | MIC ([4]; strain JMC7365): 400 µg/mL (≈ 2350 µM) | MIC [6, 18]: 800 µg/mL (≈ 4700 µM) | MIC [6, 19]: 800 µg/mL (≈ 4700 µM) | MIC [7, 20]: 400 µg/mL (≈ 2350 µM) | MIC [7, 21]: 400 µg/mL (≈ 2350 µM) | MIC [7, 22]: 400 µg/mL (≈ 2350 µM) | MIC ([8]; strain 6715): 800 µg/mL (≈ 4700 µM)
Structure (SMILES): O=C(O)c1cc(O)c(O)c(O)c1 [Gallic acid, gallic acid]

Structure (SMILES): CCCCC/C=C\C/C=C\CCCCCCCC(=O)O [Linoleic acid]
Efficacy with 1.25% of indigo-plant extract [1, 23]: ++ | Efficacy without indigo-plant extract ([1]; content 0.5%): ±

Structure (SMILES): COc1ccc(C(=O)[O-])c(O)c1.[K+] [Potassium 4-methoxysalicylate]
Efficacy with 1.25% of indigo-plant extract [1, 24]: +++ | Efficacy without indigo-plant extract ([1]; content 1.0%): +

Structure (SMILES): O=C1O[C@H]([C@@H](O)CO)C([O-])=C1O.[Na+] [Sodium L-ascorbate]
Efficacy with 1.25% of indigo-plant extract [1, 11]: +++ | Efficacy without indigo-plant extract ([1]; content 3.0%): +

Structure (SMILES): COc1cc(CCC(=O)CC(=O)CCc2ccc(O)c(OC)c2)ccc1O [Tetrahydrocurcumin]
Efficacy with 1.25% of indigo-plant extract [1, 23]: ++ | Efficacy without indigo-plant extract ([1]; content 0.5%): ±

Structure (SMILES): NC[C@H]1CC[C@H](C(=O)O)CC1 [Tranexamic acid]
Efficacy with 1.25% of indigo-plant extract [1, 24]: ++ | Efficacy without indigo-plant extract ([1]; content 1.0%): ±

Structure (SMILES): O=c1cc(CO)occ1O [koji acid]
Efficacy with 1.25% of indigo-plant extract [1, 24]: +++ | Efficacy without indigo-plant extract ([1]; content 1.0%): + | Efficacy (suppression of blackening of cells) ([9]; medium containing 2.5 mM, cultured 72 hours): +

Structure (SMILES): O=C1c2ccccc2-n2c1nc1ccccc1c2=O [tryptanthrin]
MIC ([2]; read-out: Minimum Inhibitory Concentration (MIC), strain B-13D): 6.25 µg/mL (≈ 25.2 µM) | MIC ([2]; read-out: Minimum Inhibitory Concentration (MIC), strain Ingbritt): 25 µg/mL (≈ 101 µM) | MIC ([2]; read-out: Minimum Inhibitory Concentration (MIC), strain OMZ-61): 6.25 µg/mL (≈ 25.2 µM) | MIC ([2]; read-out: Minimum Inhibitory Concentration (MIC), strain OMZ-65): 12.5 µg/mL (≈ 50.4 µM) | MIC ([2]; read-out: Minimum Inhibitory Concentration (MIC), strain OMZ-175): 6.25 µg/mL (≈ 25.2 µM) | MIC ([2]; read-out: Minimum Inhibitory Concentration (MIC), strain OMZ-176): 12.5 µg/mL (≈ 50.4 µM) | MIC [3]: 25 µg/mL (≈ 101 µM) | MIC [4]: 6.25 µg/mL (≈ 25.2 µM) | MIC ([6]; read-out: Minimum Inhibitory Concentration (MIC), strain JMC2434): 25 µg/mL (≈ 101 µM) | MIC ([6]; read-out: Minimum Inhibitory Concentration (MIC), strain JMC8525): 6.25 µg/mL (≈ 25.2 µM) | MIC ([6]; read-out: Minimum Inhibitory Concentration (MIC), strain JMC8577): 25 µg/mL (≈ 101 µM) | Cytotoxicity [10]: no cytotoxity to B16 melanoma cells was observed | MIC ([7]; read-out: Minimum Inhibitory Concentration (MIC), strain JMC12257): 12.5 µg/mL (≈ 50.4 µM) | MIC ([7]; read-out: Minimum Inhibitory Concentration (MIC), strain JMC33277): 12.5 µg/mL (≈ 50.4 µM) | Melanin production ([9]; 0.5 μg/ml or more used instead of the indigo-plant extract): melanin production was suppressed although the effect was lower than the one of indigo-plant extract | MIC [8]: 25 µg/mL (≈ 101 µM)
